{"source": "paper PMC12624743", "about": "(ACS Infectious Diseases, 2025)", "key": {"[1]": {"target": "T1, WT N. gonorrhoeae topoisomerase IV (Neisseria gonorrhoeae, UniProt P48374)", "T1 sequence (P48374 1-768)": "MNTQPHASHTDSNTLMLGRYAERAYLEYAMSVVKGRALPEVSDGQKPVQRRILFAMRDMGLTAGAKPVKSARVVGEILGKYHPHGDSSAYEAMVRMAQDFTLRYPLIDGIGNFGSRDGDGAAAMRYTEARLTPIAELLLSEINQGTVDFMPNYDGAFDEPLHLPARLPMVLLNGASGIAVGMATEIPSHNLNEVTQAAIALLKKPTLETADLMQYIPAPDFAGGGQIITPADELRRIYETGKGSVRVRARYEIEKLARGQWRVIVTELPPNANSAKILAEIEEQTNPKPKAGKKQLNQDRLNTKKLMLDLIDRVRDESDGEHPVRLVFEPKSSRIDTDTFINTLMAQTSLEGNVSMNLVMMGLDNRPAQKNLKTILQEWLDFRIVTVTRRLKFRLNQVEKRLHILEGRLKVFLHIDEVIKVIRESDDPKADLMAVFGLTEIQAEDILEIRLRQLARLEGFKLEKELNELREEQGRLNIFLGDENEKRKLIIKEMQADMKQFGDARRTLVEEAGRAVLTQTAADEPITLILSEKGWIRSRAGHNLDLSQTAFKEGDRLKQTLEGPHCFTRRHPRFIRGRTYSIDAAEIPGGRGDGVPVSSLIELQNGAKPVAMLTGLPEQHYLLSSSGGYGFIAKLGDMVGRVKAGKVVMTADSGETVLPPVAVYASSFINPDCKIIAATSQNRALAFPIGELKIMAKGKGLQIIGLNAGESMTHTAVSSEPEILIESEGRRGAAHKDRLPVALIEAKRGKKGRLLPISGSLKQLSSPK", "assay": "Topoisomerase IV-catalyzed DNA decatenation assay, WT", "assay_type": "biochemical", "design": "His; made in house", "protocol": "(§1) All proteins were His-tagged. N. gonorrhoeae WT gyrase (GyrA, GyrB) and topoisomerase IV (ParC, ParE) subunits as well as mutant GyrA^D90N, GyrA^A92T, GyrA^S91F, and GyrA^S91F/D95G gyrase and ParC^D86N and ParC^S88P topoisomerase IV were prepared as described previously. , N. gonorrhoeae mutant GyrA^D95G gyrase and mutant ParC^S87N and ParC^E91G topoisomerase IV were generated using a QuickChange II XL site-directed mutagenesis kit (Agilent Technologies) with custom primers for the desired mutations. Mutant N. gonorrhoeae GyrA and ParC subunits were expressed and purified as described by Ashley et al. with the following modifications to optimize protein expression and lysis: (1) GyrA^D95G was expressed for 2.5 h and ParC^S87N and ParC^E91G were expressed for 3 h before harvesting, and (2) cells were lysed by sonication using a digital sonifier (Branson). The identities of all constructs were confirmed by DNA sequencing, and all enzymes were stored at −80 °C. In all assays, N. gonorrhoeae gyrase or topoisomerase IV was used as a 1:1 GyrA:GyrB or ParC:ParE mixture, respectively, and the stated enzyme concentration reflects that of the holoenzyme (A2B2). […]"}, "[2]": {"system": "N. gonorrhoeae topoisomerase IV ParC^S87N", "assay": "Topoisomerase IV-catalyzed DNA decatenation assay, ParC^S87N", "assay_type": "biochemical, Neisseria gonorrhoeae", "settings": "ParC S87N vs WT", "protocol": "as §1"}, "[3]": {"system": "N. gonorrhoeae FA1090E-1 (GyrA^A92T/ParC^WT)", "assay": "MIC by agar dilution, GyrA^A92T strain", "assay_type": "cell-based", "settings": "Neisseria gonorrhoeae", "protocol": "The purified isolate was confirmed to harbor GyrA^A92T as the single target mutation by DNA sequencing. This strain was designated FA1090E-1 (GyrA^A92T).\nMinimum inhibitory concentration (MIC) of test compounds was determined by an agar dilution method, the reference testing method for N. gonorrhoeae according to the standards of the Clinical and Laboratory Standards Institute and the CDC."}, "[4]": {"target": "T2, N. gonorrhoeae gyrase GyrA^S91F (Neisseria gonorrhoeae, UniProt P48371, S91F)", "T2 construct": "His; made in house", "T2 sequence (P48371 whole entry S91F)": "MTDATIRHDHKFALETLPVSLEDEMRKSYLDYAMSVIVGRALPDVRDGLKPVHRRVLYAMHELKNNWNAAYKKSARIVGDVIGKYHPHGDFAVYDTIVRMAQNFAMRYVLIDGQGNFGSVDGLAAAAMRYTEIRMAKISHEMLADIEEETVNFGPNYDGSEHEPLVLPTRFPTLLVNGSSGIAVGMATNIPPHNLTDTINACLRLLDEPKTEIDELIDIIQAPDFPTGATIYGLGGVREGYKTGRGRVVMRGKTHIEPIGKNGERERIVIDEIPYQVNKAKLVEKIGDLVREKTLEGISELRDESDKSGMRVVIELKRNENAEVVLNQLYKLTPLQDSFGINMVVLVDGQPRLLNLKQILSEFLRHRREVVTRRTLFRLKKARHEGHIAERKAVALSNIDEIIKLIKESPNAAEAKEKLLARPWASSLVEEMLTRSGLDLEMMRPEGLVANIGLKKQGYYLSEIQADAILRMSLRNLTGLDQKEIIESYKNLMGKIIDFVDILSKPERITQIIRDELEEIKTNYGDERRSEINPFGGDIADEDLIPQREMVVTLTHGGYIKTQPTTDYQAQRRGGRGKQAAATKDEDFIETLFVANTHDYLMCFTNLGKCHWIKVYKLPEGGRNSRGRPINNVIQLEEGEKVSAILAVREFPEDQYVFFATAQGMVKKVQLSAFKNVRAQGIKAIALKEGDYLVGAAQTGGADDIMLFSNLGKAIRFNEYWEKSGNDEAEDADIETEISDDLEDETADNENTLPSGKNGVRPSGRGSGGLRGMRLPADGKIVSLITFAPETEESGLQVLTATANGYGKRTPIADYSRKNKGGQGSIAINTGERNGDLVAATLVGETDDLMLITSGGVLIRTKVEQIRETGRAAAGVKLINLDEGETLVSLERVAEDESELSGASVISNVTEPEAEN", "T2 sequence (P22118 whole entry partner)": "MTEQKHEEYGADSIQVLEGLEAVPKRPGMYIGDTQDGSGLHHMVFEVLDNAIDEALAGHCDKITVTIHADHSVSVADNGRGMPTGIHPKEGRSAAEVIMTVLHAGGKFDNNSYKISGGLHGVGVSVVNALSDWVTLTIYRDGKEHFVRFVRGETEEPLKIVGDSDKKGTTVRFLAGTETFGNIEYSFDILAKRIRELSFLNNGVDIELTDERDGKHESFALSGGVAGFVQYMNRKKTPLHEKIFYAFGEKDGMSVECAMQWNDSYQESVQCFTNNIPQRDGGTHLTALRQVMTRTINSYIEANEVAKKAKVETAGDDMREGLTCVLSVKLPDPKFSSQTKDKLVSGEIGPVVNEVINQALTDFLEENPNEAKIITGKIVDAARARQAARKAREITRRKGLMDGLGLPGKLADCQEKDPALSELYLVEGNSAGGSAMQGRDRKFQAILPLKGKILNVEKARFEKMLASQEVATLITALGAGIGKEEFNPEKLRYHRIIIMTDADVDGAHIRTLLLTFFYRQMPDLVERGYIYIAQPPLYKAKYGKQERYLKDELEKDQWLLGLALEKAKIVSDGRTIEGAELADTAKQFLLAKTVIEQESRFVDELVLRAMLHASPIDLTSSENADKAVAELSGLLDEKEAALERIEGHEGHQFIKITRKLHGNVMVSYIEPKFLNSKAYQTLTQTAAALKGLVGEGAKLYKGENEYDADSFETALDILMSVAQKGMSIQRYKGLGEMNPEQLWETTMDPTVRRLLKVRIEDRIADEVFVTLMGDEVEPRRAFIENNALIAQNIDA", "assay": "DNA cleavage assay, GyrA^S91F gyrase", "assay_type": "biochemical", "protocol": "Some experiments replaced MgCl2 with an equivalent concentration of CaCl2 (10 mM), or 1.5 mM ATP was added to assay mixtures.\nReactions were incubated at 37 °C for 30 min with WT and mutant (GyrA^D90N, GyrA^A92T, GyrA^S91F, GyrA^D95G, or GyrA^S91F/D95G) N. gonorrhoeae gyrase, 10 min with WT N. gonorrhoeae topoisomerase IV, and 20 min with mutant (ParC^D86N, ParC^S88P, ParC^S87N, or ParC^E91G) N. gonorrhoeae topoisomerase IV. Enzyme-DNA cleavage complexes were trapped by adding 2 μL of 5% SDS followed by 2 μL of 250 mM EDTA (pH 8.0). Proteinase K was added (2 μL of a 0.8 mg/mL solution), and reaction mixtures were incubated at 45 °C for 30 min to digest the enzyme. Samples were mixed with 2 μL of loading buffer and heated at 45 °C for 2 min prior to electrophoresis in 1% agarose gels in 40 mM Tris-acetate (pH 8.3), and 2 mM EDTA containing 0.5 μg/mL ethidium bromide. DNA bands were visualized by midrange ultraviolet light and quantified using an Alpha Innotech digital imaging system (Protein Simple). Single-stranded DNA cleavage was monitored by the conversion of negatively supercoiled to nicked plasmid molecules."}}}
{"smiles": "O=c1ccc2ncc(=O)n3c2n1C[C@H]3CN1CCC(NCc2cc3c(cn2)OCCC3)CC1", "note": "[gepotidacin]", "values": [{"measurement": "IC50", "setting": "[1]", "value": "1.8 ± 1.3", "unit": "µM"}, {"measurement": "fold lower decatenation IC50 vs WT topoisomerase IV", "setting": "[2]", "value": "~2.3", "unit": "fold"}, {"measurement": "MIC", "setting": "[3]", "value": 2, "unit": "mg/L"}, {"measurement": "Adj-Max Cleavage, single-stranded DNA breaks", "setting": "[4]", "value": 5.5, "unit": "%"}, {"measurement": "EC50", "setting": "[4]; GyrA S91F gyrase, read-out: CC50, single-stranded DNA cleavage", "value": 17.2, "unit": "µM"}, {"measurement": "fold decrease of adjusted maximal DNA cleavage vs WT", "setting": "[4]; GyrA S91F vs WT", "value": "~3.1", "unit": "fold"}]}
